Assays:
[1] = target: T1, recombinant human liver glycogen phosphorylase (Homo sapiens, UniProt P06737); experiment: Measuring liver glycogen phosphorylase activity (forward reaction system, NADPH absorbance at 340 nm); type: biochemical
T1 construct: made in house; host or cells: Sf9 insect cells (crude homogenate, diluted, used as the enzyme solution)
T1 sequence (P06737 1-847): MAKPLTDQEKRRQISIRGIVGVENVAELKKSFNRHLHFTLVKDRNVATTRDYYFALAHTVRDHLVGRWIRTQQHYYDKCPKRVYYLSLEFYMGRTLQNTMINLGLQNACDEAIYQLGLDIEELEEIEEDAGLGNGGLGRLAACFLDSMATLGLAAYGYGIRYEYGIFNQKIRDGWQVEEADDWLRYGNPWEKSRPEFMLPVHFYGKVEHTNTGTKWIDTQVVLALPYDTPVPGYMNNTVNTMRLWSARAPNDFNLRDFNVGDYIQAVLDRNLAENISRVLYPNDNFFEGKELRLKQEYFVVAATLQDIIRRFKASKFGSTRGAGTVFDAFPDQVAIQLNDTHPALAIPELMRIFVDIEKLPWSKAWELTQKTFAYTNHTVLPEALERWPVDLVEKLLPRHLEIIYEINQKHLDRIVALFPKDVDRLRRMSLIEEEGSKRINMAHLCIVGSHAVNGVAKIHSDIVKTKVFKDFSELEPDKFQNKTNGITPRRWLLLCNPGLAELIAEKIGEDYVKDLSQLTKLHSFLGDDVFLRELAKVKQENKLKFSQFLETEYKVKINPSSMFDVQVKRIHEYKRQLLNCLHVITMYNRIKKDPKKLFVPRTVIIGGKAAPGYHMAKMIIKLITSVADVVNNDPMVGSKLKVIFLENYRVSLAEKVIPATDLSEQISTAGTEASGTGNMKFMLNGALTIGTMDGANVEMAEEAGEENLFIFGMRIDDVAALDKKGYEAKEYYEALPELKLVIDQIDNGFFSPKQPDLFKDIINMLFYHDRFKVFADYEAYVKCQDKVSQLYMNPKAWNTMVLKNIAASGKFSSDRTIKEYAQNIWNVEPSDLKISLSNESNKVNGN
In short: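 Compounds in 1% DMSO; activity taken as blank-subtracted 340 nm absorbance change across 75 min at room temperature. Forward reaction: glucose-1-phosphate released from glycogen converted by coupling enzymes, yielding NADPH; enzyme from recombinant Sf9 homogenate, reaction containing glucose, pH 6.8. IC50 from two-point linear interpolation.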

db/db mice = experiment: Measuring blood plasma glucose concentration in db/db mice (hypoglycemic effect); type: in vivo; parameters: key: ++: compounds exhibiting statistically significant hypoglycemic effect at a dose of 10 mg/kg or less; +: compounds exhibiting not significant but obvious hypoglycemic effect at a dose of 10 mg/kg; conditions: for vivo (hypoglycemic effect in db/db mice): db/db mice fasted 4 h, oral administration, plasma glucose 1 and 3 hours after administration, dose 10 mg/kg or less, Dunnett test vs solvent
Method: 2. Exemplary Test (2) Method for Measuring Blood Plasma Glucose Concentration
Using db/db mice representing an obesity type of diabetic model were used to examine the effect of compound (1) of the present invention on glucose concentrations in plasma. Plasma glucose concentrations of the db/db mice (9-18 weeks old) were measured, and the mice were divided into groups each of 5 or 8 mice such that there would be no difference in the average value of plasma glucose concentrations. After fasting for four hours, the example compound or the solvent (0.5% methylcellulose) was administered orally to the db/db mice, and plasma glucose concentrations were measured 1 and 3 hours after administration. The analysis of the hypoglycemic effect of the example compound was performed through a statistical test at every hour between the group receiving the solvent and the groups of example compound (Dunnett test).

[2] = enzyme inhibitory activity with respect to liver glycogen phosphorylase, class symbols

With `CN(C)c1ccc(CNC(=O)c2cc(NC(=O)c3cc(F)c(F)cc3Cl)[nH]n2)cn1` [Example 1-129] the IC50 [1, 2] was under 100 nM and the “vivo (hypoglycemic effect in db/db mice)” value (db/db mice; 10 mg/kg) was “+”.
For `O=C(NCc1ccc(Cl)nc1)c1cc(NC(=O)c2cc(F)c(F)cc2Cl)[nH]n1` [Example 2-23], the IC50 [1, 2] was under 100 nM and the “vivo (hypoglycemic effect in db/db mice)” value (db/db mice) was “+”.
With `O=C(NCc1ncc(F)cc1F)c1cc(NC(=O)c2cc(F)c(F)cc2Cl)[nH]n1` [Example 1-26] the IC50 [1, 2] was under 100 nM and the “vivo (hypoglycemic effect in db/db mice)” value (db/db mice) was “+”.
In the case of `Cc1ccc(CNC(=O)c2cc(NC(=O)c3cc(F)c(F)cc3Cl)[nH]n2)c(Cl)n1` [Example 1-56], the IC50 [1, 2] is reported as under 100 nM and the “vivo (hypoglycemic effect in db/db mice)” value (db/db mice) is reported as “+”.
`COc1ccccc1CNC(=O)c1cc(NC(=O)c2cc(F)c(F)cc2Cl)[nH]n1` [Example 1-66] was tested, and the IC50 [1, 2] was under 100 nM and the “vivo (hypoglycemic effect in db/db mice)” value (db/db mice) was “+”.
With `Cl.O=C(NCc1ccc2c(c1)OCO2)c1cc(NC(=O)c2cc(F)c(F)cc2Cl)[nH]n1` [Example 1-84] the IC50 [1, 2] was under 100 nM and the “vivo (hypoglycemic effect in db/db mice)” value (db/db mice) was “++”.
In the case of `COc1ccc(CNC(=O)c2cc(NC(=O)c3cc(F)c(F)cc3Cl)[nH]n2)cn1` [Example 1-12], the IC50 [1, 2] is reported as under 100 nM and the “vivo (hypoglycemic effect in db/db mice)” value (db/db mice; 10 mg/kg) is reported as “++”.
`CCCN(Cc1cccnc1)C(=O)c1cc(NC(=O)c2cc(F)c(F)cc2Cl)[nH]n1` [Example 1-117] was tested, and the IC50 [1, 2] was under 100 nM and the “vivo (hypoglycemic effect in db/db mice)” value (db/db mice) was “+”.
`Cl.Cn1c(CNC(=O)c2cc(NC(=O)c3cc(F)c(F)cc3Cl)[nH]n2)nc2ccccc21` [Example 1-50] was tested, and the IC50 [1, 2] was under 100 nM and the “vivo (hypoglycemic effect in db/db mice)” value (db/db mice) was “+”.
In the case of `N#Cc1cc(CNC(=O)c2cc(NC(=O)c3cc(F)c(F)cc3Cl)[nH]n2)ccn1` [Example 6-48], the IC50 ([1]; human liver glycogen phosphorylase, class symbol) is reported as under 100 nM and the “vivo (hypoglycemic effect)” value (db/db mice; db/db mice, blood plasma glucose, dose of 10 mg/kg or less) is reported as “++”.
With `CCCN(C(=O)c1cc(NC(=O)c2cc(F)c(F)cc2Cl)[nH]n1)C1CCCCC1` [Example 1-88] the IC50 [1, 2] was under 100 nM and the “vivo (hypoglycemic effect in db/db mice)” value (db/db mice) was “+”.
With `Cl.O=C(NCc1ccncc1)c1cc(NC(=O)c2cc(F)c(F)cc2Cl)[nH]n1` [Example 3-21] the IC50 [1, 2] was under 100 nM and the “vivo (hypoglycemic effect in db/db mice)” value (db/db mice) was “++”.
`O=C(NCc1cccnc1F)c1cc(NC(=O)c2cc(F)c(F)cc2Cl)[nH]n1` [Example 2-27] was tested, and the IC50 [1, 2] was under 100 nM and the “vivo (hypoglycemic effect in db/db mice)” value (db/db mice) was “+”.
For `CCN(CC)c1ccc(CNC(=O)c2cc(NC(=O)c3cc(F)c(F)cc3Cl)[nH]n2)cn1` [Example 5-29], the IC50 [1, 2] was under 100 nM and the “vivo (hypoglycemic effect in db/db mice)” value (db/db mice) was “++”.
In the case of `O=C(NCc1ccc(N2CCCCC2)nc1)c1cc(NC(=O)c2cc(F)c(F)cc2Cl)[nH]n1` [Example 5-24], the IC50 [1, 2] is reported as under 100 nM and the “vivo (hypoglycemic effect in db/db mice)” value (db/db mice) is reported as “++”.
With `CCOCCN(C(=O)c1cc(NC(=O)c2cc(F)c(F)cc2Cl)[nH]n1)C1CCCCC1` [Example 1-100] the IC50 [1, 2] was under 100 nM and the “vivo (hypoglycemic effect in db/db mice)” value (db/db mice) was “+”.
`Cc1noc(C)c1CNC(=O)c1cc(NC(=O)c2cc(F)c(F)cc2Cl)[nH]n1` [Example 1-46] was tested, and the IC50 [1, 2] was under 100 nM and the “vivo (hypoglycemic effect in db/db mice)” value (db/db mice) was “++”.
`Cl.O=C(NCc1ccccn1)c1cc(NC(=O)c2cc(F)c(F)cc2Cl)[nH]n1` [Example 3-20] was tested, and the IC50 [1, 2] was under 100 nM and the “vivo (hypoglycemic effect in db/db mice)” value (db/db mice) was “+”.
`CCN(C(=O)c1cc(NC(=O)c2cc(F)c(F)cc2Cl)[nH]n1)C1CCCCC1` [Example 1-80] was tested, and the IC50 [1, 2] was under 100 nM and the “vivo (hypoglycemic effect in db/db mice)” value (db/db mice) was “+”.
`O=C(NCc1csc(-c2cccnc2)n1)c1cc(NC(=O)c2cc(F)c(F)cc2Cl)[nH]n1` [Example 1-41] was tested, and the IC50 [1, 2] was under 100 nM and the “vivo (hypoglycemic effect in db/db mice)” value (db/db mice) was “+”.
